Experimental data from PMC5923399 (Marine Drugs, 2018).
Where two headings read alike, the source gives them in different places. Where a SMILES comes first, the peptide text is derived from it. Bridges are numbered along the chain shown (N, C = ends).

Columns and labels:
GABABR-coupled Cav2.2 = biological target: T1, GABABR-coupled Cav2.2 (Homo sapiens, UniProt O75899+Q9UBS5); assay: cell-based; set-up: species or system human GABABR and rat Cav2.2
T1 construct: expressed in transfected cells; host or cells: HEK293T cells, transient transfection; GABAB subunit plasmids from David J. Adams, University of Wollongong

α9α10 nAChR [1] = biological target: T2, α9α10 nAChR (Rattus norvegicus, UniProt P43144+Q9JLB5); conditions: read-out: IC50 α9α10; cited from earlier work
T2 construct: expressed in transfected cells; host or cells: Xenopus oocytes (cRNA injection)

rat α3β2 nAChRs = biological target: T3, rat α3β2 nAChRs (Rattus norvegicus, UniProt P04757+P12390); assay: cell-based
T3 construct: expressed in transfected cells; host or cells: Xenopus oocytes (cRNA injection)

α3β4 nAChR = biological target: T4, α3β4 nAChR (Rattus norvegicus, UniProt P04757+P12392); assay: cell-based
T4 construct: expressed in transfected cells; host or cells: Xenopus oocytes (cRNA injection)

α2β2 nAChR = biological target: T5, α2β2 nAChR (Rattus norvegicus, UniProt P12389+P12390); assay: cell-based
T5 construct: expressed in transfected cells; host or cells: Xenopus oocytes (cRNA injection)

α7 nAChR = biological target: T6, α7 nAChR (Rattus norvegicus, UniProt Q05941); assay: cell-based
T6 construct: expressed in transfected cells; host or cells: Xenopus oocytes (cRNA injection)

α2β4 nAChR = biological target: T7, α2β4 nAChR (Rattus norvegicus, UniProt P12389+P12392); assay: cell-based
T7 construct: expressed in transfected cells; host or cells: Xenopus oocytes (cRNA injection)

α4β2 nAChR = biological target: T8, α4β2 nAChR (Rattus norvegicus, UniProt P09483+P12390); assay: cell-based
T8 construct: expressed in transfected cells; host or cells: Xenopus oocytes (cRNA injection)

α4β4 nAChR = biological target: T9, α4β4 nAChR (Rattus norvegicus, UniProt P09483+P12392); assay: cell-based
T9 construct: expressed in transfected cells; host or cells: Xenopus oocytes (cRNA injection)

α9α10 nAChR [2] = biological target: T2, α9α10 nAChR; assay: cell-based

T3 sequence (P04757 26-499 limits assumed): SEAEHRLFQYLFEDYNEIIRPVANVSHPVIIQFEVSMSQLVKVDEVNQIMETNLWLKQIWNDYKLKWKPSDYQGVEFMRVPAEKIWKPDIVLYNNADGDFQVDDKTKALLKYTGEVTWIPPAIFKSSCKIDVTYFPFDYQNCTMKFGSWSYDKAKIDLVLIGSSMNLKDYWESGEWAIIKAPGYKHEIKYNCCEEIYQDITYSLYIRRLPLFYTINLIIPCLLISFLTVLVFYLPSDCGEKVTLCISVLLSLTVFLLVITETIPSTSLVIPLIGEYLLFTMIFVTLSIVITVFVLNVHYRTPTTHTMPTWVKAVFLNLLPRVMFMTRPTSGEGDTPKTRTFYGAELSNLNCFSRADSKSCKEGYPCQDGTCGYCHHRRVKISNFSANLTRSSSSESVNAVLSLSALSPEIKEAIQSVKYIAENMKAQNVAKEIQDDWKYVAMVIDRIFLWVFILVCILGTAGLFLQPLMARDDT
T3 sequence (P12390 25-500 limits assumed): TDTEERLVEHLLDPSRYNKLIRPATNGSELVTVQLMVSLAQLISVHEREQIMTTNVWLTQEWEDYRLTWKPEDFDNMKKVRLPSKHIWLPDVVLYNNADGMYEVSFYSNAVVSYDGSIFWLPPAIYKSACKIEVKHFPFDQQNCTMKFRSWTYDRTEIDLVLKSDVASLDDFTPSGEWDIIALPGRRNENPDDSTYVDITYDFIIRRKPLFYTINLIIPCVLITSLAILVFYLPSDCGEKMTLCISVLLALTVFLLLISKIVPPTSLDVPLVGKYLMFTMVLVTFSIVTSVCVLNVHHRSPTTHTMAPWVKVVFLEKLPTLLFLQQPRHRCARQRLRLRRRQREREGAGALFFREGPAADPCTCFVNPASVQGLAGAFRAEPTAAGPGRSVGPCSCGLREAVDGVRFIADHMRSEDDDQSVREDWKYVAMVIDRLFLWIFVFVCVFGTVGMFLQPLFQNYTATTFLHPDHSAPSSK
T1 sequence (Q9UBS5 15-961 limits assumed): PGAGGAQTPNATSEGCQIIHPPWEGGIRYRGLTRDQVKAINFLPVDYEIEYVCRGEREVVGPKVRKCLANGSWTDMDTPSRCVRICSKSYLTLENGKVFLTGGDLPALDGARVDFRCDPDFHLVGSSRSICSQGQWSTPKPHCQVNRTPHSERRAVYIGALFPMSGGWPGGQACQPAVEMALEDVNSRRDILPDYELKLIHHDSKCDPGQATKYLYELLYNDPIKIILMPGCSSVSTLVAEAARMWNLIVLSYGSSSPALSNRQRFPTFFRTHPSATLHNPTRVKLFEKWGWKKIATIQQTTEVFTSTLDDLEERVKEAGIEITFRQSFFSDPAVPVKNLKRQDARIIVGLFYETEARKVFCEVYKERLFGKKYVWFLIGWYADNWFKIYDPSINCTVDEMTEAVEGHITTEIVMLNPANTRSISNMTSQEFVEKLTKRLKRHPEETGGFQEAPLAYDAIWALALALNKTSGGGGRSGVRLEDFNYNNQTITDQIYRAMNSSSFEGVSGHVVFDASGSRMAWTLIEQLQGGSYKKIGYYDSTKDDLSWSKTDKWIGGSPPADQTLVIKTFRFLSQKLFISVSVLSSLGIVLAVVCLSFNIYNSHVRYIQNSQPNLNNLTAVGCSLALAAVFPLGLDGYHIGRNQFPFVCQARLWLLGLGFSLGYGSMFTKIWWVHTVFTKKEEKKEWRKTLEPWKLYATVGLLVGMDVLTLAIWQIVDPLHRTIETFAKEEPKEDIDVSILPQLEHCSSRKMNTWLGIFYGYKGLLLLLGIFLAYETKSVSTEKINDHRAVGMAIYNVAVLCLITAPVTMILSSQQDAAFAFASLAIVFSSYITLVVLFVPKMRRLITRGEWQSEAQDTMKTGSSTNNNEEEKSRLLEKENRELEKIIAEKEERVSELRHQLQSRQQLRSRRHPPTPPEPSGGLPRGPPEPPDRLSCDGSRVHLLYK
T1 sequence (O75899 42-941): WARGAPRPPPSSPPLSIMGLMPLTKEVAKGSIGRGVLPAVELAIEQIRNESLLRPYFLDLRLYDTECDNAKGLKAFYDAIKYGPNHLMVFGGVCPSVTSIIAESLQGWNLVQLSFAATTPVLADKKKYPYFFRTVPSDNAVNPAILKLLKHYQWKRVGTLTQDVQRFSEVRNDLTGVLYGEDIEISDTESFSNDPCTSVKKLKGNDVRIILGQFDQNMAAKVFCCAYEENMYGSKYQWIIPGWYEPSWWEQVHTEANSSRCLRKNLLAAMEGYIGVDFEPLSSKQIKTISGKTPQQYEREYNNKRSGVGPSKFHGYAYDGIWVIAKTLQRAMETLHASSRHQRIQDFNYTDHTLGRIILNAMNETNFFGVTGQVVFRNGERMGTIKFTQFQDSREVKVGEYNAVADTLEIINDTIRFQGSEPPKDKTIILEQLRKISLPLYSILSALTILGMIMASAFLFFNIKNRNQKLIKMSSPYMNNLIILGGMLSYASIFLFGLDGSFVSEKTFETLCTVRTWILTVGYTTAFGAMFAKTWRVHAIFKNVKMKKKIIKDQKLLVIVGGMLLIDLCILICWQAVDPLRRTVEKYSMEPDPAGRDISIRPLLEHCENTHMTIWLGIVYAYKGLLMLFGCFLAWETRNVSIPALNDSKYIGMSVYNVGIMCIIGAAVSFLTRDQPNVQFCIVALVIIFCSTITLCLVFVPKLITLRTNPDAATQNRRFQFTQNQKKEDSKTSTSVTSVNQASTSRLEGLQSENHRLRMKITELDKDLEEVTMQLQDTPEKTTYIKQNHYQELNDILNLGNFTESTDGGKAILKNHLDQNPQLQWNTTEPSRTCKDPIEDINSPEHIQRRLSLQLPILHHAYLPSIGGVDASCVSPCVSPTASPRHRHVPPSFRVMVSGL
T2 sequence (P43144 26-479 limits assumed): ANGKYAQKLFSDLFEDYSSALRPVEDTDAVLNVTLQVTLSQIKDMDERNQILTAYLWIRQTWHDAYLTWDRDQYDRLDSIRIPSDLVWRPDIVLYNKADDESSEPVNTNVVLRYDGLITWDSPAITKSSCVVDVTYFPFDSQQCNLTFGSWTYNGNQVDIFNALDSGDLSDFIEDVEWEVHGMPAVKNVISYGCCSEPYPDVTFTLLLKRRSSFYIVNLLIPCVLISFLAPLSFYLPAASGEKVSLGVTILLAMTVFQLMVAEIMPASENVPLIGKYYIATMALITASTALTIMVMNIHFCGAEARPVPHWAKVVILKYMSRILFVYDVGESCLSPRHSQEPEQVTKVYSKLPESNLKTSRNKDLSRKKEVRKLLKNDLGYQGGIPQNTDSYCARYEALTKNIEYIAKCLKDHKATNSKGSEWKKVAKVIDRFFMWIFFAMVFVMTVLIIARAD
T2 sequence (Q9JLB5 25-447 limits assumed): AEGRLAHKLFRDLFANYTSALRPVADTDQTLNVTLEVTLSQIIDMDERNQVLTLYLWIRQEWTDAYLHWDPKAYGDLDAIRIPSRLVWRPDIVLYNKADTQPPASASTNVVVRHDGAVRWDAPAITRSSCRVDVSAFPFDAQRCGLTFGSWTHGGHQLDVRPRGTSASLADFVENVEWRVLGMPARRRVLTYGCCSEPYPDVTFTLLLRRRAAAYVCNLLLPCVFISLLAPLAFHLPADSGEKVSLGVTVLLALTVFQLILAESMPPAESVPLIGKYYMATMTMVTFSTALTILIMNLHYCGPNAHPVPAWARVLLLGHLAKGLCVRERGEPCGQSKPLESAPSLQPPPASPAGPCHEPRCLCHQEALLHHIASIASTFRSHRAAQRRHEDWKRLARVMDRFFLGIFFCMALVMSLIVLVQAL
T5 sequence (P12389 28-511 limits assumed): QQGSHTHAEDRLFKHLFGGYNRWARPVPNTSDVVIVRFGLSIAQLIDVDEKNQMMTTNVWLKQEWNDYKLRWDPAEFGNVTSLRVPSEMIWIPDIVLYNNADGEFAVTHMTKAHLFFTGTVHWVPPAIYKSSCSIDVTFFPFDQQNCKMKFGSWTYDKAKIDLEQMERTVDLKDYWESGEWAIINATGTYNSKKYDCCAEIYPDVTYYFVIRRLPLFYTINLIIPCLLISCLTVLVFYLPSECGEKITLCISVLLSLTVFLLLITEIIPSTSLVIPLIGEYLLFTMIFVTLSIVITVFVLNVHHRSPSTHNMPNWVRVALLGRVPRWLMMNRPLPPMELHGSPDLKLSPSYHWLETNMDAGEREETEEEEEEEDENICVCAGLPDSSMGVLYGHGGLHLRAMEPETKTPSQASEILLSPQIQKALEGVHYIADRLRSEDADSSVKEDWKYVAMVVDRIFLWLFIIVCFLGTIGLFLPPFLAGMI
T5 sequence (P12390 25-500 limits assumed): as the sequence (P12390 25-500 limits assumed) above
T7 sequence (P12389 28-511 limits assumed): as the sequence (P12389 28-511 limits assumed) above
T7 sequence (P12392 21-495 limits assumed): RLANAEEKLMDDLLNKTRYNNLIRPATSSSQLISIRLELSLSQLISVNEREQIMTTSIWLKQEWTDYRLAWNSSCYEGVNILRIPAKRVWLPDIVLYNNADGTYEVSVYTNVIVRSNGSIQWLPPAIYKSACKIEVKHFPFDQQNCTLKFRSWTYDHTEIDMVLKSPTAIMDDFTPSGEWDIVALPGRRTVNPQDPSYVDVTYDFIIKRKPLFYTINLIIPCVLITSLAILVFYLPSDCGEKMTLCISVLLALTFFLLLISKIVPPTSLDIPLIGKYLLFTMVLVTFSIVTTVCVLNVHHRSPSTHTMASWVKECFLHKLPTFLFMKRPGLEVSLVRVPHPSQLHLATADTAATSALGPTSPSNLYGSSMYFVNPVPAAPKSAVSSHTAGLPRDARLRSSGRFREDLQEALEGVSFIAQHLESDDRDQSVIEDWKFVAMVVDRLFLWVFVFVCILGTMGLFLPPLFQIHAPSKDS
T4 sequence (P04757 26-499 limits assumed): as the sequence (P04757 26-499 limits assumed) above
T4 sequence (P12392 21-495 limits assumed): as the sequence (P12392 21-495 limits assumed) above

CC[C@H](C)[C@@H]1NC(=O)[C@H](CCC(=O)O)NC(=O)[C@@H]2CCCN2C(=O)[C@H](Cc2cnc[nH]2)NC(=O)[C@H](CC(=O)O)NC(=O)[C@H](Cc2ccc(O)cc2)NC(=O)[C@H](CC(N)=O)NC(=O)[C@@H]2CSSC[C@H](NC(=O)CN)C(=O)N[C@@H](CSSC[C@@H](C(N)=O)NC1=O)C(=O)N[C@@H](CO)C(=O)N[C@@H](CC(=O)O)C(=O)N1CCC[C@H]1C(=O)N[C@@H](CCCNC(=N)N)C(=O)N2 [Vc1.1, reference compound]
IC50 (GABABR-coupled Cav2.2): 0.0024 µM

CC[C@H](C)[C@@H]1NC(=O)[C@H](Cc2cnc[nH]2)NC(=O)[C@@H]2CCCN2C(=O)[C@H](CC(N)=O)NC(=O)[C@H](CC(N)=O)NC(=O)[C@H](C(C)C)NC(=O)[C@H](CC(N)=O)NC(=O)[C@@H]2CSSC[C@H](NC(=O)CN)C(=O)N[C@@H](CSSC[C@@H](C(N)=O)NC1=O)C(=O)N[C@@H](CO)C(=O)N[C@@H](Cc1cnc[nH]1)C(=O)N1CCC[C@H]1C(=O)N[C@@H](C)C(=O)N2 [RegIIA, reference compound] (H-GCCSHPACNVNNPHIC-NH2; disulfide 2-8, 3-16)
IC50 (α9α10 nAChR [1]): > 1 µM
IC50 (rat α3β2 nAChRs): 0.0345 µM

C[C@@H]1NC(=O)[C@@H]2CCCN2C(=O)[C@H](Cc2c[nH]cn2)NC(=O)[C@H](CO)NC(=O)[C@@H]2CSSC[C@@H](C(N)=O)NC(=O)[C@H](Cc3ccccc3)NC(=O)[C@H](Cc3ccc(O)cc3)NC(=O)[C@@H]3CCCN3C(=O)[C@H](CC(N)=O)NC(=O)[C@H](CC(N)=O)NC(=O)CNC(=O)[C@H](CO)NC(=O)[C@H](CSSC[C@H](NC(=O)CN)C(=O)N2)NC1=O [Lt1.3-II] (H-GCCSHPACSGNNPYFC-NH2; disulfide 2-8, 3-16)
IC50 (α3β4 nAChR): > 10 µM
IC50 (α2β2 nAChR): > 10 µM
IC50 (α7 nAChR): > 10 µM
IC50 (rat α3β2 nAChRs): 0.0448 µM
selectivity index (SI) (rat α3β2 nAChRs): > 200
IC50 (α2β4 nAChR): > 10 µM
IC50 (GABABR-coupled Cav2.2): > 10 µM
inhibition at 10 µM (GABABR-coupled Cav2.2; HEK-293T, read-out: inhibition of peak current amplitude, SEM): 3.2 ± 1.8%
IC50 (α4β2 nAChR): > 10 µM
IC50 (α4β4 nAChR): > 10 µM
IC50 (α9α10 nAChR [2]): > 10 µM
